Where “and” joins values, the source holds several entries; their conditions need not be identical. Equal entries are not always repeated. Where two headings read alike, the source gives them in different places.
Assays:
CqsS C170Y = assay: CqsS-dependent repression of qrr4-gfp, CqsS C170Y (Fig 7C); assay type: cell-based, Vibrio cholerae; settings: Treatment 1uM; CqsS mutant C170Y
CqsS F166L = assay: CqsS-dependent repression of qrr4-gfp, CqsS F166L (Fig 7C); assay type: cell-based, Vibrio cholerae; settings: Treatment 1uM; CqsS mutant F166L
CqsS F162A = assay: CqsS-dependent repression of qrr4-gfp, CqsS F162A (Fig 7C); assay type: cell-based, Vibrio cholerae; settings: Treatment 1uM; CqsS mutant F162A
CqsS = biological target: T1, CqsS (Vibrio cholerae serotype O1, UniProt Q9KM66); assay: cell-based; settings: for Light production: strain WN1102
T1 construct: endogenous in cells; host or cells: V. cholerae WN1102 (ΔcqsA ΔluxQ/pBB1), derived from C6706str2

CqsS D618N = test system: T2, CqsS D618N; assay: CqsS D618N autophosphorylation in inverted membrane vesicles, 32P (Fig 7A); assay type: biochemical, Vibrio cholerae
T2 construct: made in house; host or cells: E. coli C43 (DE3), pET21b; used as inverted membrane vesicles

WT CqsS [1] = test system: T3, WT CqsS; assay type: cell-based; settings: Treatment 1uM
T3 construct: made in house; host or cells: E. coli C43 (DE3), pET21b; used as inverted membrane vesicles

WT CqsS [2] = test system: T3, WT CqsS; assay type: biochemical; settings: for % Total Phosphorylation: CqsS WT

O=C(Cc1ccc(-c2ccccc2)cc1)NC1CCCC1 [#10]
Qrr4-GFP/OD600 (CqsS C170Y): 18211540 and 17807950 and 19517480
Qrr4-GFP/OD600 (CqsS F166L): 1551288 and 1596042 and 1572105
Qrr4-GFP/OD600 (CqsS F162A): 18605320 and 18513840 and 18292630
Light production (CqsS; Agonist 0.0119209 nM): 9369.4 RLU and 6986.9 RLU and 10942 RLU
Light production (CqsS; Agonist 0.0476837 nM): 9423.1 RLU and 8000 RLU and 9340.1 RLU
Light production (CqsS; Agonist 0.190735 nM): 12692 RLU and 13456 RLU and 11192 RLU
Light production (CqsS; Agonist 0.762939 nM): 11313 RLU and 14104 RLU and 15238 RLU
Light production (CqsS; Agonist 3.05176 nM): 22600 RLU and 24142 RLU and 30238 RLU
Light production (CqsS; Agonist 12.207 nM): 47534 RLU and 48144 RLU and 43294 RLU
Light production (CqsS; Agonist 48.8281 nM): 434632 RLU and 280649 RLU and 290930 RLU
Light production (CqsS; Agonist 195.312 nM): 18756970 RLU and 17581320 RLU and 17098310 RLU
Light production (CqsS; Agonist 781.25 nM): 54801790 RLU and 56977330 RLU and 58542960 RLU
Light production (CqsS; Agonist 3125 nM): 59104040 RLU and 65075830 RLU and 69081300 RLU
Light production (CqsS; Agonist 12500 nM): 60176380 RLU and 64830980 RLU and 65866960 RLU
Light production (CqsS; Agonist 50000 nM): 60204070 RLU and 58034020 RLU and 58318400 RLU
EC50 (CqsS; light production, reporter strain WN1102, 4 h at 30 °C): 62 nM
% Total Phosphorylation (CqsS D618N; agonist 0.32 uM): 78.2169% and 129.787% and 72.1832% and 83.4166% and 68.7823%
% Total Phosphorylation (CqsS D618N; agonist 0.64 uM): 67.6455% and 78.826% and 54.4942% and 82.803% and 54.4178% and 76.2235%
% Total Phosphorylation (CqsS D618N; agonist 5.12 uM): 12.1256% and 15.8552% and 14.0183% and 14.8493% and 9.564% and 18.5457%
% Total Phosphorylation (CqsS D618N; agonist 6.4 uM): 8.254% and 10.2835% and 8.308% and 5.772% and 5.105% and 9.008%
% Total Phosphorylation (CqsS D618N; agonist 8 uM): 7.787% and 6.051% and 9.483% and 6.182% and 5.718% and 6.335%
Qrr4-GFP/OD600 (WT CqsS [1]): 1697194 and 1657949 and 1642162
% Total Phosphorylation (WT CqsS [2]; Agonist 0.1 uM): 86.7558%
% Total Phosphorylation (WT CqsS [2]; Agonist 0.5 uM): 84.62% and 81.5912%
% Total Phosphorylation (WT CqsS [2]; Agonist 1 uM): 70.72%
% Total Phosphorylation (WT CqsS [2]; Agonist 5 uM): 11.17% and 6.892%
% Total Phosphorylation (WT CqsS [2]; Agonist 10 uM): 7.64% and 4.71%
% Total Phosphorylation (WT CqsS [2]; Agonist 20 uM): 4.64% and 6.727%
% Total Phosphorylation (WT CqsS [2]; Agonist 30 uM): 7.41% and 4.674%
% Total Phosphorylation (WT CqsS [2]; Agonist 100 uM): 7.94% and 6.455%
% Total Phosphorylation (WT CqsS [2]; Agonist 200 uM): 9.2% and 11.8727%
inhibition of WT CqsS autophosphorylation (WT CqsS [2]; saturating concentration (Fig 7B)): 90%
